Test results from patent publication US20140328814A1, “ANTIMICROBIAL AND […] PROBIOTIC COMPOSITION, FOOD PRODUCT AND DIETARY SUPPLEMENT COMPRISING MICROORGANISM STRAIN LACTOBACILLUS […] TENSIA DSM 21380 AND METHOD FOR SUPPRESSING CONTAMINATING MICROBES IN A FOOD PRODUCT” (Oü Tervisliku Piima Biotehnoloogiate Arenduskeskus …, priority 2008, published 2014).
Values after ≈ are worked out from the molar mass of the structure shown.

How the values were obtained:
[1] = system: L. plantarum DSM 21379; experiment: Antibiotic resistance, E-test MIC, control strain; assay type: cell-based, Lactobacillus plantarum; conditions: E-test strips
[2] = system: Lactobacillus plantarum Tensia DSM 21380; experiment: Antibiotic resistance, E-test MIC; assay type: cell-based; conditions: E-test strips
Description: Method. Lactobacillus plantarum Tensia DSM 21380 was tested using antibiotic strips of the E-test (AB Biodisk, Solna).

Compound | MIC Control strain L. plantarum DSM 21379 [1] | MIC L. plantarum Tensia DSM 21380 [2]
Gentamicin | 1 µg/mL | 1.5 µg/mL
Quinopristin/dalfopristin | 1 µg/mL | 1 µg/mL
Cipro/ofloxacin | 32 µg/mL | 32 µg/mL
CC[C@H]1OC(=O)[C@H](C)[C@@H](O[C@H]2C[C@@](C)(OC)[C@@H](O)[C@H](C)O2)[C@H](C)[C@@H](O[C@@H]2O[C@H](C)C[C@H](N(C)C)[C@H]2O)[C@](C)(O)C[C@@H](C)C(=O)[C@H](C)[C@@H](O)[C@]1(C)O [Erytromycin] | 0.25 µg/mL (≈ 0.341 µM) | 0.19 µg/mL (≈ 0.259 µM)
